Measurements published in patent publication US20240201204A1, “Biomarker and Druggable Target of Neurodegeneration” (University Hospitals Cleveland Medical Center, priority 2020, published 2024).

What was measured:
C57BL/6J mice = test: Foot slip test of motor function after TBI; type: in vivo, mouse; details: low-dose salsalate daily IP from 24 h after TBI, vs. TBI+Vehicle
Experimental: (§1) Drug preparation and administration: CGP3466B (Sigma-Aldrich, SML1941) was dissolved in DMSO and then diluted in sterile saline. The final working stock was 0.0014 mg/ml for administering the 0.014 mg/kg dose. Intraperitoneal administration of CGP3466B was initiated 15 min or 24 h after injury, and tissues were harvested 6 h (for SNO-GAPDH, SNO-SIRT1 measurement) or 2 weeks (for ac-tau measurement) later, respectively. Salsalate (AdipoGen, AG-CR1-3574) was dissolved in DMSO and then diluted in sterile PBS. The final working stocks were as follows: 2.5 mg/ml (25 mg/kg dose), 1 mg/ml (10 mg/kg dose), 0.5 mg/ml (5 mg/kg dose). Daily intraperitoneal administration of salsalate was initiated 24 hr after injury and continued throughout behavioral testing. P7C3-A20 and FK866 (Sigma-Aldrich, F8557) were first dissolved in 1 vol of DMSO, followed by addition of 4 vol of Kolliphor and vigorously vortexing. The solution was then diluted with 30 vol of filtered 5% dextrose (pH 7.0). EX527 (Selleckchem, S1541) was dissolved in 1% DMSO+30% polyethylene glycol+1% Tween 80. Daily intraperitoneal administration of P7C3-A20 was initiated 24 hr after poly-traumatic brain injury. […]
Foot slip test of motor function: Mice were trained to cross an 80 cm-long beam over two days and then tested on day 16. Video of the mice was recorded and analyzed by observers blind to treatment group.

clinically-diagnosed TBI = test: Pharmacoepidemiologic cohort analysis (MarketScan Medicare Supplemental database), incidence of TBI; type: in vivo, human; details: vs. PS-matched aspirin cohort, Cox regression model, 6 years of follow-up
Source text: Because ac-tau has been generally reported in the brains of subjects with AD, we evaluated the relationship between salsalate or diflunisal use and incidence of clinically-diagnosed TBI or AD by analyzing 7.23 million U.S. commercially-insured individuals (MarketScan Medicare Supplemental database). We conducted two cohort analyses to evaluate the predicted association, based on individual level of longitudinal patient data and pharmacoepidemiologic methods, as previously established (Cheng et al., 2018). Thus, our two cohorts included: (1) salsalate vs. a matched aspirin population and (2) diflunisal vs. a matched aspirin population (Table 2). For each comparison, we estimated the un-stratified Kaplan-Meier curves and conducted propensity score (PS) stratified (n strata=10) log-rank tests and a Cox regression model after adjusting age, race, sex, and disease comorbidities (including diabetes, hypertension, and coronary artery disease) using a propensity score-matching method (Methods).
Study cohorts. The IBM® MarketScan® Medicare Supplemental Database is one of the first in the U.S. to profile the healthcare experience of retirees with Medicare supplemental insurance paid by employers. The MarketScan Medicare Supplemental Database provides detailed cost, use and outcomes data for healthcare services performed in both inpatient and outpatient settings. […]

[1] = Body weight during treatment after TBI; type: in vivo, mouse; details: salsalate daily IP from 24 h after TBI
Experimental: Drug preparation and administration: CGP3466B (Sigma-Aldrich, SML1941) was dissolved in DMSO and then diluted in sterile saline. The final working stock was 0.0014 mg/ml for administering the 0.014 mg/kg dose. […] Salsalate (AdipoGen, AG-CR1-3574) was dissolved in DMSO and then diluted in sterile PBS. The final working stocks were as follows: 2.5 mg/ml (25 mg/kg dose), 1 mg/ml (10 mg/kg dose), 0.5 mg/ml (5 mg/kg dose). Daily intraperitoneal administration of salsalate was initiated 24 hr after injury and continued throughout behavioral testing. […] and FK866 (Sigma-Aldrich, F8557) were first dissolved in 1 vol of DMSO, followed by addition of 4 vol of Kolliphor and vigorously vortexing. The solution was then diluted with 30 vol of filtered 5% dextrose (pH 7.0). EX527 (Selleckchem, […]) was dissolved in 1% DMSO+30% polyethylene glycol+1% Tween 80. Daily intraperitoneal administration of […] was initiated 24 hr after poly-traumatic brain injury. EX527 (10 mg/kg) was administer once a day and FK866 was treated twice per day, with the first injection given at the same time as […] (20 mg/kg) and the second injection given 6 h later (LoCoco et al., 2017 eLife). […] The solution was then diluted with 7 vol of saline to the appropriate concentration for administration at 25, 50, or 100 mg/kg.

IL-1β = IL-1β expression in cerebral cortex after TBI (qPCR); type: in vivo, mouse; details: 25 mg/kg salsalate
Experimental: as §1, with “injury. EX527 (10 mg/kg) was administer once a day and FK866 was treated twice per day, with the first injection given at the same time as P7C3-A20 (20 mg/kg) and the second injection given 6 h later (LoCoco et al., 2017 eLife).” for “injury.”

[2] = patients with pediatric and adolescent congenital muscular dystrophy; cited from earlier work

SMILES	post-TBI motor impairment (foot slip assay) (C57BL/6J mice)	hazard ratio [HR], clinically-diagnosed TBI (clinically-diagnosed TBI)	body weight [1]	TBI-induced increase of IL-1β in cerebral cortex (IL-1β)	safety in Phase 1 clinical trial [2]
O=C(Oc1ccccc1C(=O)O)c1ccccc1O [salsalate]	protects mice from post-TBI impairments	0.70	Body weight was not altered	this increase is not attenuated	–
C#CCN(C)CC1=Cc2ccccc2Oc2ccccc21.O=C(O)/C=C\C(=O)O [CGP3466B]	–	–	–	–	shown safety
